Assay results from patent publication US20250179059A1 (The Regents of the University of California, priority 2021, published 2025).

Key:
[1] = test system: human SKM-1 acute myeloid leukemia cells; assay: SKM-1 antiproliferation cell-based assay (ATPlite); conditions: Homo sapiens, SKM-1, 96 h, SKM-1 antiproliferation assay, 4 days, Table C2
Summary of the method: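 Log-phase cells in RPMI 1640/15% FBS were seeded at 34722 cells/mL and exposed for 4 days to nine-concentration DMSO serial dilutions in triplicate. Viability was read as ATP luminescence (ATPlite 1step), and IC50 values came from variable-slope non-linear regression.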

[2] = biological target: T1, human BRD4 bromodomain II (Homo sapiens, UniProt O60885); assay: Bromodomain binding assay (AlphaScreen), BRD4 BDII; conditions: AlphaScreen assay, Table C2; read-out: BRD4 BDII IC50
T1 construct: human BRD4 bromodomain II [based on Genbank NM_058243, residues 349-460]; host or cells: E. coli
Summary of the method: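 Inhibition of acetyl-H4 peptide binding to human BRD4 bromodomains is measured by bead-based proximity (AlphaScreen) in pH 7.5 HEPES buffer containing 0.05% CHAPS and 0.1% BSA. Ten compound concentrations in 3-fold steps give competitive binding IC50s.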

SMILES	GI50 [1] [nM]	IC50 [2] [nM]
Cn1ccn(-c2ccc(-c3cc(F)cc(-c4cncc(N5CCC(C)(N)C5)c4)c3O)cc2Cl)c1=O (centres unmarked) [Example 745, 1-(3′-(5-(3-amino-3-methylpyrrolidin-1-yl)pyridin-3-yl)-3-chloro-5′-fluoro-2′-hydroxy-[1,1′-biphenyl]-4-yl)-3-methyl-1H-imidazol-2(3H)-one]	0.3 to 30	0.01 to 1
Cn1ccn(-c2ccc(-c3cc(F)cc(-c4cncc(N5CC[C@](C)(N)C5)c4)c3O)cc2Cl)c1=O [Example 746, (S)-1-(3′-(5-(3-amino-3-methylpyrrolidin-1-yl)pyridin-3-yl)-3-chloro-5′-fluoro-2′-hydroxy-[1,1′-biphenyl]-4-yl)-3-methyl-1H-imidazol-2(3H)-one]	0.3 to 30	0.01 to 1
CC(C)N1CC2CN(c3cc(-c4cc(F)cc(-c5ccc(-n6ccn(C)c6=O)c(Cl)c5)c4O)ccn3)CC21 (centres unmarked) [Example 747, 1-(3-chloro-5′-fluoro-2′-hydroxy-3′-(2-(6-isopropyl-3,6-diazabicyclo[3.2.0]heptan-3-yl)pyridin-4-yl)-[1,1′-biphenyl]-4-yl)-3-methyl-1H-imidazol-2(3H)-one]	0.3 to 30	0.01 to 1
CC(C)N1CCC12CCN(c1cc(-c3cc(F)cc(-c4ccc(-n5ccn(C)c5=O)c(Cl)c4)c3O)ccn1)C2 (centres unmarked) [Example 748, 1-(3-chloro-5′-fluoro-2′-hydroxy-3′-(2-(1-isopropyl-1,6-diazaspiro[3.4]octan-6-yl)pyridin-4-yl)-[1,1′-biphenyl]-4-yl)-3-methyl-1H-imidazol-2(3H)-one]	0.3 to 30	0.01 to 1
Cn1ccn(-c2ccc(-c3cc(F)cc(-c4cccc(N5CC[C@](C)(N)C5)c4)c3O)cc2Cl)c1=O [Example 749, (S)-1-(3″-(3-amino-3-methylpyrrolidin-1-yl)-3-chloro-5′-fluoro-2′-hydroxy-[1,1′:3′,1″-terphenyl]-4-yl)-3-methyl-1H-imidazol-2(3H)-one]	0.3 to 30	1 to 10
Cn1ccn(-c2ccc(-c3cc(F)cc(-c4ccnc(N5CCC(N)(CO)C5)c4)c3O)cc2Cl)c1=O (centres unmarked) [Example 750, 1-(3′-(2-(3-amino-3-(hydroxymethyl)pyrrolidin-1-yl)pyridin-4-yl)-3-chloro-5′-fluoro-2′-hydroxy-[1,1′-biphenyl]-4-yl)-3-methyl-1H-imidazol-2(3H)-one]	0.3 to 30	0.01 to 1
CC(C)N1CCCC12CCN(c1cc(-c3cc(F)cc(-c4ccc(-n5ccn(C)c5=O)c(Cl)c4)c3O)ccn1)C2 (centres unmarked) [Example 751, 1-(3-chloro-5′-fluoro-2′-hydroxy-3′-(2-(1-isopropyl-1,7-diazaspiro[4.4]nonan-7-yl)pyridin-4-yl)-[1,1′-biphenyl]-4-yl)-3-methyl-1H-imidazol-2(3H)-one]	0.3 to 30	1 to 10
CN(C)[C@@H]1CN(c2cc(-c3cc(F)cc(-c4ccc(-n5ccn(C)c5=O)c(Cl)c4)c3O)ccn2)C[C@H]1O [Example 752, 1-(3-chloro-3′-(2-((3R,4R)-3-(dimethylamino)-4-hydroxypyrrolidin-1-yl)pyridin-4-yl)-5′-fluoro-2′-hydroxy-[1,1′-biphenyl]-4-yl)-3-methyl-1H-imidazol-2(3H)-one]	0.3 to 30	0.01 to 1
Cn1cc(-c2cc(F)cc(-c3ccc(-n4ccn(C)c4=O)c(Cl)c3)c2O)cc(N2CC[C@@](C)(N)C2)c1=O [Example 753, (R)-3-(3-amino-3-methylpyrrolidin-1-yl)-5-(3′-chloro-5-fluoro-2-hydroxy-4′-(3-methyl-2-oxo-2,3-dihydro-1H-imidazol-1-yl)-[1,1′-biphenyl]-3-yl)-1-methylpyridin-2(1H)-one]	0.3 to 30	0.01 to 1
Cn1ccn(-c2ccc(-c3cc(F)cc(-c4cc(F)cc(N5CCN(C(C)(C)C)CC5)c4)c3O)cc2Cl)c1=O [Example 754, 1-(3″-(4-(tert-butyl)piperazin-1-yl)-3-chloro-5′,5″-difluoro-2′-hydroxy-[1,1′:3′,1″-terphenyl]-4-yl)-3-methyl-1H-imidazol-2(3H)-one]	0.3 to 30	0.01 to 1
Cn1ccn(-c2ccc(-c3cc(F)cc(-c4ccnc(N5CC(N)C6(CC6)C5)c4)c3O)cc2Cl)c1=O (centres unmarked) [Example 755, 1-(3′-(2-(7-amino-5-azaspiro[2.4]heptan-5-yl)pyridin-4-yl)-3-chloro-5′-fluoro-2′-hydroxy-[1,1′-biphenyl]-4-yl)-3-methyl-1H-imidazol-2(3H)-one]	0.3 to 30	0.01 to 1
CCc1ncc(-c2cc(F)cc(-c3ccc(-n4ccn(C)c4=O)c(Cl)c3)c2O)cc1N1CCN(C(C)C)CC1 [Example 756, 1-(3-chloro-3′-(6-ethyl-5-(4-isopropylpiperazin-1-yl)pyridin-3-yl)-5′-fluoro-2′-hydroxy-[1,1′-biphenyl]-4-yl)-3-methyl-1H-imidazol-2(3H)-one]	0.3 to 30	0.01 to 1
Cn1ccn(-c2ccc(-c3cc(F)cc(-c4ccnc(N5CC6CCC(C5)C6(C)N)c4)c3O)cc2Cl)c1=O (centres unmarked) [Example 757, 1-(3′-(2-(8-amino-8-methyl-3-azabicyclo[3.2.1]octan-3-yl)pyridin-4-yl)-3-chloro-5′-fluoro-2′-hydroxy-[1,1′-biphenyl]-4-yl)-3-methyl-1H-imidazol-2(3H)-one]	30 to 300	0.01 to 1
Cn1ccn(-c2ccc(-c3cc(F)cc(-c4cccc(N5CC[C@@](C)(N)C5)c4)c3O)cc2Cl)c1=O [Example 758, (R)-1-(3″-(3-amino-3-methylpyrrolidin-1-yl)-3-chloro-5′-fluoro-2′-hydroxy-[1,1′:3′,1″-terphenyl]-4-yl)-3-methyl-1H-imidazol-2(3H)-one]	0.3 to 30	0.01 to 1
Cn1cc(-c2cc(F)cc(-c3ccc(-n4ccn(C)c4=O)c(Cl)c3)c2O)cc(N2CC[C@](C)(N)C2)c1=O [Example 759, (S)-3-(3-amino-3-methylpyrrolidin-1-yl)-5-(3′-chloro-5-fluoro-2-hydroxy-4′-(3-methyl-2-oxo-2,3-dihydro-1H-imidazol-1-yl)-[1,1′-biphenyl]-3-yl)-1-methylpyridin-2(1H)-one]	0.3 to 30	0.01 to 1
Cn1ccn(-c2ccc(-c3cc(F)cc(-c4ccnc(N5CC[C@H](C(N)=O)C5)c4)c3O)cc2Cl)c1=O [Example 760]	30 to 300	0.01 to 1
Cn1ccn(-c2ccc(-c3cc(F)cc(-c4ccnc(N5CC[C@@H](C(N)=O)C5)c4)c3O)cc2Cl)c1=O [Example 761, (R)-1-(4-(3′-chloro-5-fluoro-2-hydroxy-4′-(3-methyl-2-oxo-2,3-dihydro-1H-imidazol-1-yl)-[1,1′-biphenyl]-3-yl)pyridin-2-yl)pyrrolidine-3-carboxamide]	30 to 300	1 to 10

Other lines, results leading:

GI50 [1] [nM]	IC50 [2] [nM]	SMILES
30 to 300	1 to 10	Cn1ccn(-c2ccc(-c3cc(F)cc(-c4ccnc(N5CCC(C)(O)CC5)c4)c3O)cc2Cl)c1=O [Example 762, 1-(3-chloro-5′-fluoro-2′-hydroxy-3′-(2-(4-hydroxy-4-methylpiperidin-1-yl)pyridin-4-yl)-[1,1′-biphenyl]-4-yl)-3-methyl-1,3-dihydro-2H-imidazol-2-one]
0.3 to 30	1 to 10	COCC(C)(C)N1CCN(c2cc(-c3cc(F)cc(-c4ccc(-n5ccn(C)c5=O)c(Cl)c4)c3O)cn(C)c2=O)CC1 [Example 763]
300 to 3000	1 to 10	CC(=O)NC1(c2cccc(-c3cc(F)cc(-c4ccc(-n5ccn(C)c5=O)c(Cl)c4)c3O)c2)CC1 [Example 764, N-(1-(3″-chloro-5′-fluoro-2′-hydroxy-4″-(3-methyl-2-oxo-2,3-dihydro-1H-imidazol-1-yl)-[1,1′:3′,1″-terphenyl]-3-yl)cyclopropyl)acetamide]
0.3 to 30	1 to 10	Cn1ccn(-c2ccc(-c3cc(F)cc(-c4cc(N5CC[C@](C)(N)C5)n(C)c(=O)c4)c3O)cc2Cl)c1=O [Example 765, (S)-6-(3-amino-3-methylpyrrolidin-1-yl)-4-(3′-chloro-5-fluoro-2-hydroxy-4′-(3-methyl-2-oxo-2,3-dihydro-1H-imidazol-1-yl)-[1,1′-biphenyl]-3-yl)-1-methylpyridin-2(1H)-one]
30 to 300	1 to 10	Cc1ccc(-c2cc(F)cc(-c3ccc(-n4ccn(C)c4=O)c(Cl)c3)c2O)cc1C(N)=O [Example 766]
0.3 to 30	0.01 to 1	CC(=O)NC1CN(c2cc(-c3cc(F)cc(-c4ccc(-n5ccn(C)c5=O)c(Cl)c4)c3O)ccn2)CC12CC2 (centres unmarked) [Example 767, N-(5-(4-(3′-chloro-5-fluoro-2-hydroxy-4′-(3-methyl-1-oxo-2,3-dihydro-1H-imidazol-1-yl)-[1,1′-biphenyl]-3-yl)pyridin-2-yl)-5-azaspiro[2.4]heptan-7-yl)acetamide]
30 to 300	1 to 10	CC(=O)NC1(C)CN(c2cc(-c3cc(F)cc(-c4ccc(-n5ccn(C)c5=O)c(Cl)c4)c3O)ccn2)C1 [Example 768, N-(1-(4-(3′-chloro-5-fluoro-2-hydroxy-4′-(3-methyl-2-oxo-2,3-dihydro-1H-imidazol-1-yl)-[1,1′-biphenyl]-3-yl)pyridin-2-yl)-3-methylazetidin-3-yl)acetamide]
300 to 3000	1 to 10	Cn1ccn(-c2ccc(-c3cc(F)cc(-c4ccnc(N5CCC(C)(C(=O)O)C5)c4)c3O)cc2Cl)c1=O (centres unmarked) [Example 769, 1-(4-(3′-chloro-5-fluoro-2-hydroxy-4′-(3-methyl-2-oxo-2,3-dihydro-1H-imidazol-1-yl)-[1,1′-biphenyl]-3-yl)pyridin-2-yl)-3-methylpyrrolidine-3-carboxylic acid]
